We go through 30 compounds from ChEMBL document CHEMBL4028822, “Identification and structure activity relationship of novel flavone derivatives that inhibit the production of nitric oxide and PGE2 in LPS-induced RAW 264.7 cells” (Bioorg Med Chem Lett, 2017).

Data set [1] has as its system RAW264.7. The data set can be described thus: Antiinflammatory activity in mouse RAW264.7 cells assessed as inhibition of LPS-stimulated NO production at 20 uM by ELISA relative to control. Format: functional. (ELISA stands for enzyme-linked immunosorbent assay.)
A short description of data set [2]: Cytotoxicity against LPS-stimulated mouse RAW264.7 cells assessed as cell viability at 20 uM by MTT assay (reference value: 100.01 +/- 0.05 %). As to conditions: LPS-stimulated RAW264.7 cells, read-out: Activity. It counts as cell-based. For orientation: Formazan colour is commonly taken as a measure of viable cells.
The test system of data set [3] is RAW264.7. The data set can be described thus: Antiinflammatory activity in mouse RAW264.7 cells assessed as inhibition of LPS-stimulated PGE2 production by ELISA. It counts as functional, cell-based.
Data set [4] relates to RAW264.7. The data set can be described thus: Antiinflammatory activity in mouse RAW264.7 cells assessed as inhibition of LPS-stimulated NO production by ELISA. It counts as functional, cell-based.
For data set [5], the system named is RAW264.7. In words: Cytotoxicity against mouse RAW264.7 cells by MTT assay. It counts as cell-based.
In data set [6] the test system is RAW264.7. The data set can be described thus: Antiinflammatory activity in mouse RAW264.7 cells assessed as inhibition of LPS-stimulated NO production at 10 uM by ELISA relative to control. It counts as functional.
Data set [7] can be described thus: Cytotoxicity against LPS-stimulated mouse RAW264.7 cells assessed as cell viability at 10 uM by MTT assay (reference value: 100.01 +/- 0.05 %). Format: cell-based. As to conditions: LPS-stimulated RAW264.7 cells, read-out: Activity.
For data set [8], the system named is RAW264.7. In words: Antiinflammatory activity in mouse RAW264.7 cells assessed as inhibition of LPS-stimulated NO production at 5 uM by ELISA relative to control. Format: functional.
Data set [9] can be described thus: Cytotoxicity against LPS-stimulated mouse RAW264.7 cells assessed as cell viability at 5 uM by MTT assay (reference value: 100.01 +/- 0.05 %). Format: cell-based. The following applies: LPS-stimulated RAW264.7 cells, read-out: Activity.

By inhibition is commonly meant the share of the control response that was lost under treatment. On to `COc1ccc2c(=O)cc(-c3ccccc3)oc2c1` [7-METHOXYFLAVONE], for which the inhibition at 20 µM in data set [1] was determined as 17.7%. Also, the viability at 20 µM in data set [2] stood at 133%.

For orientation: IC50 means the midpoint of a concentration-inhibition curve. As to `CS(=O)(=O)Nc1ccc([N+](=O)[O-])cc1OC1CCCCC1` [NS-398], the IC50 in [3] is 6.74 µM.

Turning to `C[Si](C)(C)c1ccc(-c2cc(=O)c3ccccc3o2)cc1`, the inhibition at 20 µM in [1] was determined as 18%. In addition, the viability at 20 µM in data set [2] was found to be 95%.

As to `O=c1cc(-c2ccccc2)oc2ccc(F)cc12`, the inhibition at 20 µM in [1] stood at 20.4%. The viability at 20 µM in data set [2] came out at 75.2%.

On to `O=c1cc(-c2ccc(O)cc2)oc2ccccc12`, for which the inhibition at 20 µM in data set [1] is 37.5%. Also, the IC50 in data set [3] came to 3.77 µM; in [4] it was 48.3 µM; in data set [5], 145 µM. Moreover, in data set [2], the viability at 20 µM was found to be 96.1%.

For the compound `O=c1cc(-c2ccccc2)oc2ccccc12` [FLAVONE], the inhibition at 20 µM in data set [1] is 16.3%. Further, the viability at 20 µM in data set [2] turned out to be 95.4%.

For `O=c1cc(-c2ccccc2)oc2cc3c(cc12)OCO3`, in data set [1], the inhibition at 20 µM worked out at 20.9%. The viability at 20 µM in data set [2] is 119%.

For the compound `O=c1cc(-c2ccc(O)c(O)c2)oc2ccccc12`, the inhibition at 10 µM in data set [6] is 64.3%. Also, the concentration for half-maximal inhibition (IC50) in data set [3] turned out to be 0.99 µM; in [4], 6.29 µM; in data set [5], 45.1 µM. Moreover, the viability at 10 µM in [7] stood at 93.6%.

Take `COc1ccc2oc(-c3ccccc3)cc(=O)c2c1` [6-METHOXYFLAVONE]: in data set [1], the inhibition at 20 µM came out at 22.2%. For the same compound, in data set [2], the viability at 20 µM worked out at 116%.

Turning to `COc1ccc(-c2cc(=O)c3ccccc3o2)c(OC)c1`, the inhibition at 20 µM in data set [1] came out at 20.9%. For the same compound, the viability at 20 µM in data set [2] was found to be 107%.

`COc1ccc(-c2cc(=O)c3ccccc3o2)cc1OC` [3',4'-DIMETHOXYFLAVONE]: the inhibition at 20 µM in data set [1] was determined as 33.3%. Further, the IC50 in data set [3] worked out at 6.46 µM; in data set [4], 34.5 µM; in data set [5], 39.7 µM. In addition, the viability at 20 µM in data set [2] was found to be 117%.

With `O=c1cc(-c2ccccc2)oc2ccc(Cl)cc12` [6-CHLOROFLAVONE], in data set [1], the inhibition at 20 µM amounted to 26.1%. Moreover, the viability at 20 µM in data set [2] was determined as 91.4%.

In the case of `COc1ccc(-c2cc(=O)c3c(OC)cc(OC)cc3o2)cc1` [TRIMETHYLAPIGENIN], in [1], the inhibition at 20 µM was determined as 27.2%. Further, in [2], the viability at 20 µM came out at 103%.

As for `COc1cc(OC)c2c(=O)cc(-c3ccc(OC)c(OC)c3)oc2c1` [TETRAMETHYLLUTEOLIN], the inhibition at 20 µM in data set [1] was determined as 37.6%. The IC50 in [3] came out at 3.13 µM; in data set [4] it was 32.5 µM; in data set [5] it was 73.9 µM. For the same compound, the viability at 20 µM in data set [2] came to 109%.

Take `COc1cc(OC)c2c(=O)cc(-c3ccccc3)oc2c1` [CHRYSIN DIMETHYL ETHER]: the inhibition at 20 µM in data set [1] worked out at 31.5%. In addition, the results for the IC50 in data set [3], in data set [4] and in data set [5] were 7.43 µM, 33.2 µM and 65.6 µM, respectively. Further, the viability at 20 µM in [2] stood at 134%.

Regarding `O=c1cc(-c2ccc(-c3ccccc3)cc2)oc2ccccc12`, in data set [1], the inhibition at 20 µM turned out to be 4.45%. Besides, the viability at 20 µM in data set [2] is 92.3%.

With `COc1cc(OC)c2c(=O)cc(-c3ccc(O)c(O)c3)oc2c1`, the half-inhibitory concentration (IC50) is 14 µM in data set [3], 34.8 µM in [4] and over 200 µM in [5].

Regarding `CC(C)Cc1ccc(C(C)C(=O)O)cc1` (centres undefined) [IBUPROFEN], the half-maximal inhibitory concentration (IC50) came to 0.39 µM in [3], 1480 µM in data set [4] and 3310 µM in data set [5].

Regarding `O=c1cc(-c2ccc(C(F)(F)F)cc2)oc2ccccc12`, the inhibition at 20 µM in data set [1] is 10.7%. Further, the viability at 20 µM in data set [2] stood at 87.9%.

As to `Cc1ccc2oc(-c3ccccc3)cc(=O)c2c1` [6-METHYLFLAVONE], the inhibition at 20 µM in [1] was determined as 17.4%. For the same compound, in data set [2], the viability at 20 µM was 116%.

As for `CC(C)(C)C(=O)Oc1ccc2c(=O)cc(-c3ccccc3)oc2c1`, the inhibition at 20 µM in data set [1] was 28.6%. The viability at 20 µM in [2] was determined as 102%.

Take `O=c1cc(-c2cccc(O)c2)oc2ccccc12`: the inhibition at 20 µM in data set [1] came to 17.7%. In addition, the viability at 20 µM in data set [2] is 97%.

Consider `O=c1cc(-c2ccc(F)cc2)oc2ccccc12`, for which the inhibition at 20 µM in data set [1] came to 21.2%. The viability at 20 µM in data set [2] amounted to 92.4%.

As for `O=c1cc(-c2ccccc2)oc2ccc([N+](=O)[O-])cc12`, the inhibition at 20 µM in [1] was determined as 11.9%. The viability at 20 µM in data set [2] stood at 90.8%.

For the compound `O=c1cc(-c2ccc(O)c(O)c2)oc2cc(O)cc(O)c12` [LUTEOLIN], the IC50 was determined as 2.87 µM in [3], 5.06 µM in data set [4] and 18.9 µM in data set [5]. Moreover, in [8], the inhibition at 5 µM worked out at 19.5%. Also, the viability at 5 µM in data set [9] came out at 98%.

On to `COc1ccc(-c2cc(=O)c3ccccc3o2)cc1` [4'-METHOXYFLAVONE], for which the inhibition at 20 µM in [1] came out at 8.76%. Besides, in data set [2], the viability at 20 µM stood at 111%.

Consider `CC(C)(C)c1ccc(-c2cc(=O)c3ccccc3o2)cc1`, for which, in data set [1], the inhibition at 20 µM was determined as 19.5%. Moreover, the viability at 20 µM in [2] was determined as 99.1%.

On to `COc1cccc(-c2cc(=O)c3ccccc3o2)c1`, for which the inhibition at 20 µM in [1] is 15.7%. Further, in [2], the viability at 20 µM stood at 102%.

Take `O=c1cc(-c2ccc(-c3cccc4ccccc34)cc2)oc2ccccc12`: the inhibition at 20 µM in data set [1] is 11.6%. In addition, the viability at 20 µM in data set [2] came to 99.8%.

As to `O=c1cc(-c2ccc(Cl)cc2)oc2ccccc12`, the inhibition at 20 µM in data set [1] worked out at 5.07%. Besides, in [2], the viability at 20 µM is 85.8%.
